Source: PubChem BioAssay (NCI)
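All cell lines were grown in 96-well plates and treated with compound for 48 hours. TGI: concentration producing complete growth inhibition.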

What was measured:
Assay in all cases: NCI tumour cell line growth inhibition, 48 h
LOX IMVI melanoma = system: LOX IMVI melanoma
HCT-116 colon = system: HCT-116 colon
BT-549 breast = system: BT-549 breast
KM12 colon = system: KM12 colon
HOP-92 NSCLC = system: HOP-92 NSCLC
OVCAR-3 ovarian = system: OVCAR-3 ovarian
IGROV1 ovarian = system: IGROV1 ovarian
NCI/ADR-RES ovarian = system: NCI/ADR-RES ovarian
SNB-75 CNS = system: SNB-75 CNS
SK-MEL-28 melanoma = system: SK-MEL-28 melanoma
SNB-19 CNS = system: SNB-19 CNS
786-0 renal = system: 786-0 renal
SK-OV-3 ovarian = system: SK-OV-3 ovarian
DU-145 prostate = system: DU-145 prostate
UACC-257 melanoma = system: UACC-257 melanoma
ACHN renal = system: ACHN renal
SF-268 CNS = system: SF-268 CNS
HS 578T breast = system: HS 578T breast
OVCAR-4 ovarian = system: OVCAR-4 ovarian
SF-539 CNS = system: SF-539 CNS

Row | SMILES | TGI (LOX IMVI melanoma) [µM] | TGI (HCT-116 colon) [µM] | TGI (BT-549 breast) [µM] | TGI (KM12 colon) [µM] | TGI (HOP-92 NSCLC) [µM] | TGI (OVCAR-3 ovarian) [µM] | TGI (IGROV1 ovarian) [µM] | TGI (NCI/ADR-RES ovarian) [µM] | TGI (SNB-75 CNS) [µM] | TGI (SK-MEL-28 melanoma) [µM] | TGI (SNB-19 CNS) [µM] | TGI (786-0 renal) [µM] | TGI (SK-OV-3 ovarian) [µM] | TGI (DU-145 prostate) [µM] | TGI (UACC-257 melanoma) [µM] | TGI (ACHN renal) [µM] | TGI (SF-268 CNS) [µM] | TGI (HS 578T breast) [µM] | TGI (OVCAR-4 ovarian) [µM] | TGI (SF-539 CNS) [µM]
1 | CC1(C)CO[P@@](=S)(c2ccccn2)O[C@@H]1c1ccccc1 | > 100 | > 100 | > 100 | > 100 | > 100 | > 100 | > 100 | > 100 | > 100 | > 100 | > 100 | > 100 | > 100 | > 100 | > 100 | > 100 | > 100 | > 100 | > 100 | –
2 | O=c1oc(-c2ccc(O)cc2)cc2cc(O)ccc12 | – | 39 | 62.1 | 68 | 96.2 | > 100 | > 100 | 47.9 | > 100 | – | 93.6 | > 100 | 74.9 | > 100 | > 100 | > 100 | 97.6 | 64 | > 100 | > 100
3 | COc1ccc2c(O)c(S(=O)(=O)c3ccc(C)cc3)c(=O)oc2c1OC | – | > 100 | > 100 | > 100 | > 100 | > 100 | > 100 | > 100 | > 100 | > 100 | > 100 | > 100 | > 100 | > 100 | > 100 | > 100 | > 100 | > 100 | > 100 | > 100
4 | CC(=O)C(C)C(=O)N1C(=O)N(C)C2(C)N(C)C(=O)NC12C (stereo unspecified) | – | > 100 | > 100 | > 100 | > 100 | > 100 | > 100 | > 100 | > 100 | > 100 | > 100 | > 100 | > 100 | > 100 | – | > 100 | > 100 | > 100 | > 100 | > 100
5 | O=C(O)c1nc2ccc(C(F)(F)F)cc2nc1Nc1ccc(Cl)c(Cl)c1 | 21.5 | 17.1 | 14.7 | 20.5 | – | 23.9 | 34.7 | 19.7 | 29 | 26.6 | 10.9 | 23.7 | – | – | 56.4 | 49.7 | 21.9 | 41.6 | 76.1 | –
6 | O=C(Nc1cccc(F)c1)c1cc2ccc(O)cc2oc1=Nc1cccc(F)c1 | 9.35 | > 100 | 34.3 | > 100 | – | > 100 | 5.73 | 74.5 | – | > 100 | > 100 | > 100 | > 100 | > 100 | > 100 | > 100 | > 100 | 50.8 | > 100 | > 100
7 | O=c1[nH]c(SCc2cccc([N+](=O)[O-])c2)nc2nc[nH]c12 | > 100 | > 100 | > 100 | > 100 | > 100 | > 100 | > 100 | > 100 | > 100 | > 100 | > 100 | > 100 | > 100 | > 100 | > 100 | > 100 | > 100 | > 100 | > 100 | –
8 | COc1ccc2cc(CNCCCCCCCCNCc3ccc4cc(OC)ccc4c3)ccc2c1 | 43.4 | > 100 | 9.97 | – | 10 | 9.86 | > 100 | > 100 | 11.1 | 9.8 | 7.83 | > 100 | – | > 100 | 10.1 | 10.3 | – | > 20.8 | 9.55 | –
9 | CCc1ccc2[nH]c(O)c(C3=Nc4ccccc4C3=O)c2c1 | > 100 | 35.4 | 72.8 | > 100 | > 100 | 51.8 | 20.1 | > 100 | 91.4 | > 100 | 31.2 | 19 | 41.5 | > 100 | > 100 | 24.8 | 90.6 | > 100 | 61.3 | –
10 | CC(=O)O[C@H]1CC[C@@]2(C)C(=CC[C@@H]3[C@@H]2CC[C@]2(C)c4c(n[nH]c4C)C[C@@H]32)C1 | > 100 | 44.5 | 32.1 | 37.4 | 39.8 | 26.2 | 38.8 | 85.1 | 25.3 | 45.2 | 42.3 | 35.1 | 46.1 | 27.2 | 33.2 | 43.5 | 48.7 | 48 | 33.3 | –
11 | COC1(C2c3ccccc3CCN2C(=O)OC(C)(C)C)C(=O)C(c2ccccc2)=C1N(C)C (stereo unspecified) | – | 96.9 | 75 | > 100 | 86.2 | 70.6 | – | 57.9 | > 100 | > 100 | > 100 | 93.3 | > 100 | > 100 | > 100 | > 100 | > 100 | 96.9 | > 100 | 47.6
12 | CC12CC(=O)Nc3ccccc3N1C(c1ccccc1)=NO2 (stereo unspecified) | – | > 100 | > 100 | > 100 | > 100 | > 100 | > 100 | > 100 | > 100 | – | > 100 | > 100 | > 100 | > 100 | > 100 | > 100 | > 100 | > 100 | > 100 | > 100
13 | Nc1nc2ccc(Sc3ccc4nc(N)[nH]c(=O)c4c3)cc2c(=O)[nH]1 | – | > 100 | > 100 | > 100 | > 100 | > 100 | > 100 | > 100 | > 100 | > 100 | > 100 | > 100 | > 100 | > 100 | > 100 | > 100 | > 100 | > 100 | > 100 | > 100
14 | Cc1ccc(/C=C2\NC(=S)NC2=O)cc1 | > 100 | > 100 | > 100 | > 100 | – | > 100 | > 100 | > 100 | > 100 | > 100 | > 100 | > 100 | > 100 | > 100 | – | – | > 100 | > 100 | > 100 | > 100
15 | N#CCCN(CCC#N)c1ccc(/C=C2\N=C(c3ccccc3)N(c3ccc(C(=O)O)cc3)C2=O)cc1 | 93.2 | > 100 | 71.2 | 31 | 30.1 | > 100 | 53.3 | > 100 | – | > 100 | > 100 | > 100 | > 100 | > 100 | > 100 | > 100 | 61.6 | 58.5 | 66.8 | 61.5
16 | O=c1[nH]nc(-c2ccccc2)n1/N=C/c1ccccc1O | > 100 | > 100 | > 100 | > 100 | > 100 | > 100 | > 100 | > 100 | – | – | > 100 | > 100 | 53.9 | > 100 | > 100 | > 100 | > 100 | 96.2 | > 100 | > 100
17 | O=C(N=Nc1ccc(Cl)cc1Cl)NNc1ccc(Cl)cc1Cl | 30.4 | 28.7 | 39.7 | – | – | 33.6 | 61.4 | – | > 100 | 53.9 | > 100 | 32.6 | – | 33.3 | 43.1 | 42.5 | 97.5 | – | 38 | –
18 | CC(=O)C(C(=O)c1ccc(C)cc1)[C@H]1OC(C)(C)O[C@H]1[C@H]1COC(C)(C)O1 (stereo partly specified) | 8.16 | 6.81 | > 50 | 18.9 | 16.7 | – | 11 | > 50 | 10.8 | 15.8 | 17.3 | 8.75 | 18.4 | – | 11.9 | 13.2 | 28.5 | > 50 | 9.37 | 6.3
19 | CC(=O)NC1(NC(C)=O)C2CC(C1Cc1ccccc1)C(C)(C)C2C (stereo unspecified) | – | > 100 | > 100 | > 100 | > 100 | > 100 | > 100 | – | > 100 | > 100 | > 100 | > 100 | > 100 | > 100 | > 100 | > 100 | > 100 | > 100 | > 100 | > 100
20 | C1CCCCC2(CCCCCCCCC3(CCC1)SCCS3)SCCS2 | > 100 | > 100 | – | > 100 | > 100 | > 100 | > 100 | > 100 | > 100 | > 100 | > 100 | > 100 | > 100 | > 100 | > 100 | > 100 | > 100 | > 100 | > 100 | > 100
21 | O=c1[nH]nc(Cc2ccccc2)n1/N=C/c1ccco1 | > 100 | > 100 | > 100 | > 100 | – | > 100 | – | > 100 | > 100 | > 100 | > 100 | > 100 | > 100 | > 100 | > 100 | > 100 | > 100 | > 100 | > 100 | > 100
22 | O=C(/C=C1\Sc2ccccc2N=C1CC(=O)c1ccccc1)c1ccccc1 | 21.2 | 19.2 | 37.9 | 24.5 | 21.6 | 29.5 | 37.4 | 18.7 | – | 57.2 | > 100 | 21.7 | 72 | 89.1 | > 100 | 72.5 | 45.8 | > 100 | 40.3 | 34.7
23 | CCC(C)C(N)C(=O)N/N=C\c1c2c(nc3ccccc13)-c1cc3c(c(=O)n1C2)COC(=O)[C@]3(O)CC (stereo partly specified) | 1.08 | 2.96 | > 30.2 | > 22.5 | 1.8 | 8.95 | > 47 | – | 13.3 | > 100 | 0.69 | 1.12 | > 64.5 | 2.04 | 11.9 | 0.575 | – | > 100 | 52.6 | 0.0223
24 | O=Cc1ccc(OC[C@H]2COC(=O)N2)cc1 | > 100 | > 100 | > 100 | > 100 | – | > 100 | > 100 | > 100 | > 100 | > 100 | > 100 | > 100 | > 100 | > 100 | > 100 | > 100 | > 100 | > 100 | > 100 | > 100
25 | Cc1ccc(S(=O)(=O)CNC(=O)C(O)(O)C(F)(F)F)cc1 | > 100 | > 100 | > 100 | > 100 | > 100 | > 100 | > 100 | > 100 | – | > 100 | > 100 | > 100 | > 100 | > 100 | > 100 | – | > 100 | > 100 | > 100 | > 100
